In US5780505A, “Substituted N-arylmethylamino derivatives of cyclobutene-3, 4-diones” (American Home Products Corporation, priority 1997, dated 1998) one finds IC50, percent contraction and inhibition data, which are given here for 35 compounds.

One experiment relates to Isolated Rat Bladder Strips. As to the kind of experiment: Inhibition of contractions in isolated rat bladder strips (KCl-enhanced contractile activity; smooth muscle relaxation). Type of experiment: cell-based, Sprague-Dawley rats. As to conditions: 0.5 h; isolated rat bladder strips, 15 mM additional KCl, 30 minute challenge; read-out: IC50 (50% inhibition of pre-drug contractile activity). From the text: The smooth muscle relaxing activity of the compounds of this invention was established in accordance with standard pharmaceutically accepted test procedures with representative compounds as follows:
Sprague-Dawley rats (150-200 g) are rendered unconscious by CO2 asphyxiation and then euthanized by cervical dislocation. The bladder is removed into warm (37 deg.C) physiological salt solution (PSS) of the following composition (mM): NaCl, 118.4; KCl, 4.7; CaCl2, 2.5; MgSO4, 4.7; H2 O, 1,2; NaHCO3, 24.9; KH2 PO4, 1,2; glucose, 11.1; EDTA, 0.023; gassed with […]; pH 7.4. The bladder is opened and then dut into strips 1-2 mm in width and 7-10 mm in length. The strips are subsequently suspended in a 10 mL tissue bath under an initial resting tension of 1.5 g. The strips are held in place by two surgical clips one of which is attached to a fixed hook while the other is attached to an isometric force transducer. […] The carbachol is then washed out and the tissue allowed to relax to its resting level of activity. Following a further 30 min period of recovery an additional 15 mM KCl are introduced into the tissue bath. This increase in KCl concentration results in a large increase in the amplitude of spontaneous contractions (and initiation of contractions in previously quiescent strips) superimposed upon a small increase in basal tone. Following stabilization of this enhanced level of contractile activity, incremental increases in the concentration of test compound or vehicle are introduced into the tissue bath. Contractile activity is measured for each compound or vehicle concentration during the last minute of a 30 minute challenge.
The isometric force developed by the bladder strips is measured using a […] to elicit 50% inhibition of pre-drug contractile activity (IC50 concentration) and is calculated from this concentration-response curve.
The term IC50 denotes the midpoint of a concentration-inhibition curve. As to `CCC(C)(C)Nc1c(NCc2c(Cl)cccc2Cl)c(=O)c1=O` [Example 4, 3-(2,6-Dichloro-benzylamino)-4-(1,1-dimethyl-propylamino)-cyclobut-3-ene-1,2-dione], the IC50 turned out to be 280 ± 30 nM.
On the same count and under the same terms, in the case of `CCC(C)(C)Nc1c(NCc2cc(C)cc(C#N)c2)c(=O)c1=O` [Example 7, 3-([2-(1,1-Dimethyl-propylamino)-3,4-dioxo-cyclobut-1-enylamino]-methyl)-5-methyl-benzonitrile] it was 860 ± 270 nM.
The same measure, in the same setting: in the case of `Cc1cc(C)c(CNc2c(NC(C)(C)C)c(=O)c2=O)c(C)c1` [Example 9, 3-tert-Butylamino-4-(2,4,6-trimethyl-benzylamino)-cyclobut-3-ene-1,2-dione] it was 1800 ± 700 nM; in that of `CC(C)(C)Nc1c(NCc2c(Cl)cccc2Cl)c(=O)c1=O` [Example 10, 3-tert-Butylamino-4-(2,6-dichloro-benzylamino)-cyclobut-3-ene-1,2-dione], 1110 ± 410 nM.
Regarding `Cc1cc(C#N)cc(CNc2c(NC(C)C(C)(C)C)c(=O)c2=O)c1` (stereo not shown) [Example 12, 3-{[3,4-Dioxo-2-(1,2,2-trimethyl-propylamino)-cyclobut-1-enylamino]-methyl}-5-methyl-benzonitrile], the IC50 is 6600 ± 1600 nM.
The same measure, in the same setting: to `COc1cc(OC)c(CNc2c(NC(C)(C)C)c(=O)c2=O)c(OC)c1` [Example 15, 3-tert-Butylamino-4-(2,4,6-trimethoxy-benzylamino)-cyclobut-3-ene-1,2-dione] belongs 11100 ± 400 nM; to `Cc1cc(C#N)cc(CNc2c(NC(C)(C)C)c(=O)c2=O)c1` [Example 16, 3-[(2-tert-Butylamino-3,4-dioxo-cyclobut-1-enylamino)-methyl]-5-methyl-benzonitrile], 2900 ± 100 nM; to `COc1ccc(CNc2c(NC(C)(C)C)c(=O)c2=O)c(OC)c1` [Example 17, 3-tert-Butylamino-4-(2,4-dimethoxy-benzylamino)-cyclobut-3-ene-1,2-dione], 9600 ± 5700 nM.
The same measure, in the same setting: in the case of `CC(C)(C)Nc1c(NCc2ccc(F)cc2F)c(=O)c1=O` [Example 18, 3-tert-Butylamino-4-(2,4-difluoro-benzylamino)-cyclobut-3-ene-1,2-dione] it was 2100 ± 900 nM.
Same read-out and setting: in the case of `CC(C)(C)Nc1c(NCc2c(F)cccc2F)c(=O)c1=O` [Example 19, 3-tert-Butylamino-4-(2,6-difluoro-benzylamino)-cyclobut-3-ene-1,2-dione] it was 7500 ± 4500 nM.
For the compound `COc1cccc(CNc2c(NC(C)(C)C)c(=O)c2=O)c1OC` [Example 20, 3-tert-Butylamino-4-(2,3-dimethoxy-benzylamino)-cyclobut-3-ene-1,2-dione], the IC50 is 8600 ± 3500 nM.
Still for that read-out and setting: in the case of `CC(C)(C)Nc1c(NCc2cc(F)ccc2F)c(=O)c1=O` [Example 21, 3-tert-Butylamino-4-(2,5-difluoro-benzylamino)-cyclobut-3-ene-1,2-dione] it was 3900 ± 1100 nM; in that of `COc1cc(CNc2c(NC(C)(C)C)c(=O)c2=O)cc(OC)c1` [Example 22, 3-tert-butylamino-4-(3,5-dimethoxy-benzylamino)-cyclobut-3-ene-1,2-dione], 25000 ± 10000 nM; in that of `Cc1cccc(CNc2c(NC(C)(C)C)c(=O)c2=O)c1C` [Example 23, 3-tert-Butylamino-4-(2,3-dimethyl-benzylamino)-cyclobut-3-ene-1,2-dione], 2700 ± 300 nM.
Same read-out and setting: in the case of `CCCCNc1c(NCc2ccc(C#N)cc2CC)c(=O)c1=O` [Example 24, 4-[(2-Butylamino-3,4-dioxo-cyclobut-1-enylamino)-methyl]-3-ethyl-benzonitrile] it was 27100 ± 4000 nM; in that of `CCc1cc(C#N)ccc1CNc1c(NC(C)C)c(=O)c1=O` [Example 25], 31000 ± 4500 nM; in that of `CCc1cc(C#N)ccc1CNc1c(NC(CC)CC)c(=O)c1=O` [Example 26], 5200 ± 600 nM.
Still for that read-out and setting: to `CCc1cc(C#N)ccc1CNc1c(N[C@H](C)C(C)(C)C)c(=O)c1=O` [Example 28, 4-{[3,4-Dioxo-2-(1,2,2-trimethyl-propylamino)-cyclobut-1-enylamino]-methyl}-3-ethyl-benzonitrile] belongs 2000 ± 200 nM.
As for `CCC(C)(C)Nc1c(NCc2c(C)cccc2Cl)c(=O)c1=O` [Example 32, 3-(2-chloro-6-methyl-benzylamino)-4-(1,1-dimethyl-propylamino)-cyclobut-3-ene-1,2-dione], the IC50 came out at 4350 ± 4100 nM.
The same measure, in the same setting: to `CCC(C)(C)Nc1c(NCc2c(C)cc(C#N)cc2Cl)c(=O)c1=O` [Example 33, 3-Chloro-4-{[2-(1,1-dimethyl-propylamino)-3,4-dioxo-cyclobut-1-enylamino]-methyl}-5-methyl-benzonitrile] belongs 160 ± 10 nM.
The same measure, in the same setting: to `Cc1cc(C#N)cc(Cl)c1CNc1c(N[C@H](C)C(C)(C)C)c(=O)c1=O` [Example 34, 3-Chloro-4-{[3,4-dioxo-2-(1,2,2-trimethyl-propylamino)-cyclobut-1-enylamino]-methyl}-5-methyl-benzonitrile] belongs 1900 ± 1100 nM.
Still for that read-out and setting: to `Cc1cc(Br)cc(C)c1CNc1c(N[C@H](C)C(C)(C)C)c(=O)c1=O` [Example 35, 3-(4-Bromo-2,6-dimethyl-benzylamino)-4-(1,2,2-trimethyl-propylamino)-cyclobut-3-ene-1,2-dione] belongs 8900 ± 3000 nM; to `CCC(C)(C)Nc1c(NCc2c(C)cc(Br)cc2C)c(=O)c1=O` [Example 37, 3-(4-Bromo-2,6-dimethyl-benzylamino)-4-(1,1-dimethyl-propylamino)-cyclobut-3-ene-1,2-dione], 1200 ± 1100 nM.
With `Cc1cc(C)c(CNc2c(NC(C)(C)C)c(=O)c2=O)c(Cl)c1` [Example 39, 3-tert-Butylamino-4-(2-chloro-4,6-dimethyl-benzylamino)-cyclobut-3-ene-1,2-dione], the IC50 was found to be 710 ± 500 nM.
Turning to `CCC(C)(C)Nc1c(NCc2c(C)cc(C)cc2Cl)c(=O)c1=O` [Example 40, 3-(2-Chloro-4,6-dimethyl-benzylamino)-4-(1,1-dimethyl-propylamino)-cyclobut-3-ene-1,2-dione], the IC50 came out at 200 ± 80 nM.
On the same count and under the same terms, to `C[C@@H](Nc1c(NCc2ccc(C#N)c(Cl)c2)c(=O)c1=O)C(C)(C)C` [Example 42, 2-Chloro-4-{[3,4-dioxo-2-(1,2,2-trimethyl-pronylamino)-cyclobut-1-enylamino]-methyl}-benzonitrile] belongs 4700 ± 1200 nM; to `CC(C)(C)Nc1c(NCc2ccc(C#N)c(Cl)c2)c(=O)c1=O` [Example 43, 4-[(2-tert-Butylamino-3,4-dioxo-cyclobut-1-enylamino)-methyl]-2-chloro-benzonitrile], 1100 ± 100 nM; to `CCC(C)(C)Nc1c(NCc2ccc(C#N)c(Cl)c2)c(=O)c1=O` [Example 44, 2-Chloro-4-{[2-(1,1-dimethyl-propylamino]-3,4-dioxo-cyclobut-1-enylamino)-methyl}-benzonitrile], 260 ± 15 nM.
The same measure, in the same setting: in the case of `CCc1cc(CNc2c(NC(C)(C)C)c(=O)c2=O)ccc1C#N` [Example 46, 4-[(2-tert-Butylamino-3,4-dioxo-cyclobut-1-enylamino)-methyl]-2-ethyl-benzonitrile] it was 6100 ± 3800 nM.

Still in this experiment, the particulars now being: Rattus norvegicus, 0.5 h; read-out: Percent contraction at 30 μM (C).
As to `CCC(CC)Nc1c(NCc2ccc(OC)c(OC)c2)c(=O)c1=O` [Example 14, 3-(3,4-Dimethoxy-benzylamino)-4-(1-ethyl-propylamino)-cyclobut-3-ene-1,2-dione], the percent contraction at 30 µM turned out to be 54%.
The same measure, in the same setting: in the case of `Cc1cc(C)c(CNc2c(N[C@H](C)C(C)(C)C)c(=O)c2=O)c(Cl)c1` [Example 38, 3-(2-Chloro-4,6-dimethyl-benzylamino)-4-(1,2,2-trimethyl-propylamino)-cyclobut-3-ene-1,2-dione] it was 200%.

Still in this experiment, the particulars now being: Rattus norvegicus; read-out: Percent inhibition at 30 μM (I).
What is called inhibition is the change of the read-out against control, counted positive when it falls. On to `Cc1cc(C#N)cc(CNc2c(NC(C)C(C)(C)C)c(=O)c2=O)c1` (stereo not shown) [Example 12, 3-{[3,4-Dioxo-2-(1,2,2-trimethyl-propylamino)-cyclobut-1-enylamino]-methyl}-5-methyl-benzonitrile], for which the inhibition at 30 µM came to 37 ± 0.7%.
The same measure, in the same setting: in the case of `CCC(CC)Nc1c(NCc2cc(C)cc(C#N)c2)c(=O)c1=O` [Example 13, 3-{[2-(1-Ethyl-propylamino)-3,4-dioxo-cyclobut-1-enylamino]-methyl}-5-methyl-benzonitrile] it was 19.1 ± 1.7%; in that of `CCC(CC)Nc1c(NCc2ccc(OC)c(OC)c2)c(=O)c1=O` [Example 14, 3-(3,4-Dimethoxy-benzylamino)-4-(1-ethyl-propylamino)-cyclobut-3-ene-1,2-dione], 27.2 ± 2.4%; in that of `Cc1cccc(Cl)c1CNc1c(N[C@H](C)C(C)(C)C)c(=O)c1=O` [Example 29, 3-(2-Chloro-6-methyl-benzylamino)-4-(1,2,2-trimethyl-propylamino)-cyclobut-3-ene-1,2-dione], 38.6 ± 3.6%.
Still for that read-out and setting: to `Cc1cc(C)c(CNc2c(NCC(F)(F)C(F)(F)F)c(=O)c2=O)c(Cl)c1` [Example 41, 3-(2-Chloro-4,6-dimethyl-benzylamino)-4-(2,2,3,3,3-pentafluoro-propylamino)-cyclobut-3-ene-1,2-dione] belongs 41 ± 2.9%.
On the same count and under the same terms, to `CCc1cc(CNc2c(N[C@H](C)C(C)(C)C)c(=O)c2=O)ccc1C#N` [Example 45, 4-[{3,4-Dioxo-2-(1,2,2-trimethyl-propylamino)-cyclobut-1-enylamino]-methyl}-2-ethyl-benzonitrile] belongs 25 ± 2.04%.
